From PMC13203959, “New inhibitors of the Pseudomonas aeruginosa enzyme, PqsE, and methods assessing their potential to induce a conformational change via active site binding” (mSphere, 2026)

Experiments:
[1] = target: T1, PqsE(WT) (Pseudomonas aeruginosa, UniProt P20581); assay: Esterase assay: inhibition of PqsE-catalyzed MU-butyrate hydrolysis; type: biochemical; details: for maximum level of inhibition of PqsE(WT): % inhibition
T1 construct: 6xHis (N); made in house; host or cells: E. coli BL21 (DE3)
Procedure: Purified PqsE, diluted in assay buffer (50 mM Tricine, 0.01% Triton X-100, pH 8.5), was added to the wells of an opaque 384-well plate at a final concentration of 125 nM. Test molecules were diluted in DMSO and added to the wells at the indicated concentrations (5% DMSO final). The plate was then incubated at room temperature for 5 min. MU-butyrate in assay buffer was added to the plate at a final concentration of 2 µM. The plate was incubated at room temperature for 20 min prior to measuring fluorescence (excitation: 360 nm and emission: 450 nm) to monitor the hydrolysis of MU-butyrate. All data were plotted in the Prism 9.0 program, and IC50 values were calculated from inhibition curves fit to the data.

[2] = target: T2, PqsE(S285A) (Pseudomonas aeruginosa, UniProt P20581, S285A); assay: Esterase assay: inhibition of MU-butyrate hydrolysis by PqsE(S285A); type: biochemical; details: for increase of IC50 against PqsE(S285A) variant versus PqsE(WT): 20 min; for maximum level of inhibition of PqsE(S285A): % inhibition
[3] = target: T3, PqsE(S285W) (Pseudomonas aeruginosa, UniProt P20581, S285W); type: biochemical; details: esterase assay
T3 construct: 6xHis (N); made in house; host or cells: E. coli BL21 (DE3)

[4] = target: T1, PqsE(WT); assay: Differential scanning fluorimetry (DSF), PqsE(WT); type: binding; details: PqsE(WT) 2 µM, compound 100 µM
Procedure: Compounds HJ1, HJ2, and HJ5 were tested for the ability to bind and shift the Tm of purified PqsE and PqsE variants using DSF as described previously with some modifications ([18]). Briefly, compounds in DMSO were diluted in assay buffer (50 mM Tris, 150 mM NaCl, 200 µM MnCl2, pH 8) to achieve a final concentration of 100 µM (1% DMSO). Compound solutions were transferred to the wells of a 96-well PCR plate (ThermoFisher), and control wells were prepared with 1% DMSO (negative control). SYPRO Orange Dye and PqsE solutions were diluted in assay buffer and subsequently added to the wells to reach final concentrations of 7× SYPRO Orange and 2 µM PqsE. Final volume in each well was 80 µL. Plates were sealed with transparent optical adhesive covers (ThermoFisher) prior to measurement of SYPRO Orange fluorescence (ex, 580 nm; em, 623 nm) in a QuantStudio 3 Real-Time PCR system (ThermoFisher) over an increasing temperature gradient from 25 to 90°C (temperature increased at a rate of 0.1°C/s). Tm was determined from first derivative plots of the raw fluorescence curves using the Prism 9.0 software.

[5] = target: T4, PqsE(E280A) (Pseudomonas aeruginosa, UniProt P20581, E280A); type: binding; details: PqsE(E280A) 2 µM, compound 100 µM
T4 construct: made in house

[6] = target: T5, PqsE(E182W) (Pseudomonas aeruginosa, UniProt P20581, E182W); type: binding; details: PqsE(E182W) 2 µM, compound 100 µM
T5 construct: made in house

[7] = target: T6, PqsE(E182W/E280A) (Pseudomonas aeruginosa, UniProt P20581, E182W/E280A); type: binding; details: PqsE(E182W/E280A) 2 µM, compound 100 µM
T6 construct: made in house

[8] = target: T3, PqsE(S285W); type: binding; details: compound 100 µM; for Tm of PqsE-HJ complex / ∆Tm, shift in melting temperature vs DMSO-treated control: PqsE(S285W) 2 µM; for significance of shift in Tm compared to HJ2: PqsE(S285W)
[9] = target: T2, PqsE(S285A); assay: Differential scanning fluorimetry (DSF), PqsE(S285A); type: binding; details: compound 100 µM; for Tm of PqsE-HJ complex / ∆Tm, shift in melting temperature vs DMSO-treated control: PqsE(S285A) 2 µM; for significance of shift in Tm compared to HJ2: PqsE(S285A)
[10] = target: T7, PqsE(E182A) (Pseudomonas aeruginosa, UniProt P20581, E182A); type: binding; details: PqsE(E182A) 2 µM, compound 100 µM
T7 construct: made in house

[11] = target: T8, PqsE(S285D) (Pseudomonas aeruginosa, UniProt P20581, S285D); type: binding; details: PqsE(S285D) 2 µM, compound 100 µM
T8 construct: made in house

[12] = target: T9, PqsE(S285Y) (Pseudomonas aeruginosa, UniProt P20581, S285Y); type: binding; details: PqsE(S285Y) 2 µM, compound 100 µM
T9 construct: made in house

[13] = system: wild-type P. aeruginosa PA14; assay: Pyocyanin assay, wild-type strain; type: cell-based, Pseudomonas aeruginosa
Procedure: P. aeruginosa PA14 cultures were grown overnight in LB at 37°C with shaking. The saturated cultures were then diluted 1:1,000 into fresh LB containing test molecules in DMSO (final 1% DMSO). Cultures then grew for ~17 h at 37°C with shaking at 200 rpm. Next, 1 mL of each culture was collected and pelleted by centrifugation at 13,000 rpm for 3 min. The supernatant was carefully transferred to a cuvette, and the OD695 was measured in a Genesys 20 ThermoSpectronic spectrophotometer. The cell pellet was resuspended in 1 mL of PBS and then transferred into the wells of a clear 96-well plate at 100 µL per well. The OD600 was measured to assess cell density. Pyocyanin production (OD695) of the supernatants was normalized to cell density (OD600 of the resuspended cell pellets).

[14] = target: T10, PqsE-RhlR interaction (Pseudomonas aeruginosa, UniProt P20581); assay: PqsE-RhlR in vitro pull-down; type: binding; details: up to 100 µM, 1 µM 6xHis-PqsE(WT), RhlR-containing lysate
T10 construct: made in house; host or cells: Escherichia coli (PqsE purified; RhlR as crude lysate from a pET23a-rhlR strain grown with mBTL)
Procedure: RhlR was expressed following a previously established method ([18], [19]). Briefly, lysate was prepared from cultures of an Escherichia coli strain carrying rhlR on a pET23a plasmid that had been treated with the RhlR-solubilizing ligand, mBTL ([33]). The pull-down assay was conducted following a previously established method with some modifications ([18]). Briefly, purified 6xHis-PqsE(WT) was incubated with test molecules at the specified concentrations for 10 min at room temperature. The treated PqsE was then added to 100 µL of RhlR-containing lysate in lysis buffer (50 mM Tris-HCl, 150 mM NaCl, 20 mM imidazole, pH = 8.0) to a total final volume of 150 µL and a final PqsE concentration of 1 µM (final 0.6% DMSO). The mixtures were incubated at 4°C with rotation for 30 min before MagneHis Ni resin (Promega) was added (10 µL of settle volume), and incubation at 4°C with rotation was continued for 1 h. The Ni resin was then washed three times with lysis buffer, and then PqsE complexes were eluted with 50 µL elution buffer (50 mM Tris-HCl, 150 mM NaCl, 500 mM imidazole, pH = 8.0). The eluted proteins were then denatured in Laemmli sample buffer at 95°C and analyzed by SDS-PAGE.

[15] = target: T1, PqsE(WT); details: 10 min trypsin
[16] = system: P. aeruginosa PA14 pqsE(S285W) mutant strain; type: cell-based; details: 50 or 100 µM

Row | Compound | maximum level of inhibition of PqsE(WT) [1] | increase of IC50 against PqsE(S285A) variant versus PqsE(WT) [2] | maximum level of inhibition of PqsE(S285A) [2] | effect of S285W substitution on binding/inhibition [3] | Tm of PqsE-HJ complex [4] | ∆Tm, shift in melting temperature vs DMSO-treated control [4] | Tm of PqsE-HJ complex [5] | ∆Tm, shift in melting temperature vs DMSO-treated control [5] | Tm of PqsE-HJ complex [6] | ∆Tm, shift in melting temperature vs DMSO-treated control [6] | Tm of PqsE-HJ complex [7] | ∆Tm, shift in melting temperature vs DMSO-treated control [7] | Tm of PqsE-HJ complex [8] | ∆Tm, shift in melting temperature vs DMSO-treated control [8] | significance of shift in Tm compared to HJ2 [8] | Tm of PqsE-HJ complex [9] | ∆Tm, shift in melting temperature vs DMSO-treated control [9] | significance of shift in Tm compared to HJ2 [9] | Tm of PqsE-HJ complex [10] | ∆Tm, shift in melting temperature vs DMSO-treated control [10] | other results
1 | Cc1ccc(C(=O)Nc2ccc(NC(=O)OC(C)(C)C)cc2)c2[nH]ncc12 [HJ5] | ~ 50% | approximately 10 fold | approximately 10% | completely abrogated binding | 68.8 °C | 1.82 °C | 67.7 °C | 1.21 °C | 75.5 °C | 2.05 °C | 71.9 °C | 2.12 °C | 67.5 °C | 0.74 °C | neither HJ1 nor HJ5 induced significant shifts in Tm | 68.6 °C | 1.35 °C | neither HJ1 nor HJ5 induced significant shifts in Tm | 70.6 °C | 1.00 °C | IC50 [1]: 379 nM; Tm of PqsE-HJ complex [11]: 67.3 °C; ∆Tm, shift in melting temperature vs DMSO-treated control [11]: 0.48 °C; Tm of PqsE-HJ complex [12]: 68.2 °C; ∆Tm, shift in melting temperature vs DMSO-treated control [12]: 0.40 °C; decrease in pyocyanin production compared to DMSO-treated WT strain ([13]; 100 µM, WT strain, ~17 h): ~ 37%; inhibition at 50 µM ([13]; Pseudomonas aeruginosa, PA14, 50 µM, WT strain, ~17 h, read-out: inhibition of pyocyanin production compared to DMSO-treated WT strain): ~30%; effect on PqsE-RhlR complex formation [14]: neither HJ1 nor HJ5 showed any effect on complex formation; band intensity of undigested protein (band 1) after trypsin exposure ([15]; increasing concentrations up to 100 µM): increases as the concentration of HJ5 increases; induction of PqsE(E182W)-like banding pattern (conformational change) upon tryptic digest ([15]; up to 100 µM, 10 µM PqsE(WT)): did not produce a banding pattern similar to that of PqsE(E182W)
2 | CC(C)(C)OC(=O)Nc1ccc(NC(=O)c2cccc3cn[nH]c23)cc1 [HJ1] | 100% | approximately 10 fold | ~ 70% | completely abrogated binding | 70.5 °C | 3.56 °C | 68.8 °C | 2.28 °C | 74.4 °C | 0.98 °C | 72.4 °C | 2.58 °C | 66.8 °C | 0.07 °C | neither HJ1 nor HJ5 induced significant shifts in Tm | 68.1 °C | 0.81 °C | neither HJ1 nor HJ5 induced significant shifts in Tm | 70.1 °C | 0.50 °C | Tm of PqsE-HJ complex [11]: 67.2 °C; ∆Tm, shift in melting temperature vs DMSO-treated control [11]: 0.35 °C; Tm of PqsE-HJ complex [12]: 68.3 °C; ∆Tm, shift in melting temperature vs DMSO-treated control [12]: 0.54 °C; effect on pyocyanin production ([13]; pqsE(WT) strain, up to 100 µM): no appreciable effect; effect on pyocyanin production [16]: no appreciable effect; effect on PqsE-RhlR complex formation [14]: neither HJ1 nor HJ5 showed any effect on complex formation
